Numbered stars: 1 amine (or outer) side, 2 acyl side, 3 side chain; on linkers, the order of the positions; unused ones are H or OH. Bridge positions count the residues as written; N and C are the ends. Square brackets hold non-standard residues; d marks the D form. Peptide text beside a SMILES is read from it. X1 = CC(C)CCCCCCCCC[C@H](CC(=O)[*:1])O[*:2]
How the values were obtained:
3-ketoacyl-CoA thiolase = settings: cited from earlier work
[1] = system: Rhodococcus rhodochrous ATCC #53968; assay: Digestion of Red River crude oil with and without beta-oxidation inhibitors; GC of methyl esters of extracted organic acids; format: cell-based; settings: for Total GC (all peaks integrated by the GC integrator): 0.31 g oil sample; for conv. To umoles FA: approximately 1.0 micromoles per 100 area units; for Cal. AN (calculated acid number): estimated from GC areas
Experimental: (§1) An oil degrading microorganism was used to evaluate the use of chemical inhibitors to slow the utilization of hydrocarbons in petroleum. In a non-limiting example, three different chemical compounds that have been reported to inhibit beta-oxidation were tested in oil and culture medium on a petroleum sample with a strain of Rhodococcus rhodochrous ATCC #53968 in m9 minimal medium. To test the ability of each chemical inhibitor to slow the consumption of fatty acids a culture of bacteria was grown on a crude oil sample for a period of three days with crude petroleum oil as the only carbon source. Four separate flasks were set up, each with an oil to aqueous media ratio of 1 to 5 (10 ml of crude oil to 50 ml of culture medium). Each of the three chemical inhibitors was added to a separate flask and a fourth flask was allowed to digest without the addition of a chemical inhibitor as a control. The flasks were shaken at a room temperature of about 25° C. under aerobic conditions. The progress of the microbial digestion was monitored by the optical density at 600 nm and by visual inspection of the brown oil color in the aqueous phase. Three days after the addition of inhibitors, or a total of six days of incubation with oil, a small sample of oil (0.31 g) was removed. A second sample of the same size was remover after another 6 days. The organic acids were extracted from each oil sample with 1% NaOH in 70% ethanol. The samples were shaken vigorously for one minute. The aqueous extract material was then extracted with hexane to remove any trace of oil. The samples of extracted organic acids were then dried under vacuum and converted to methyl esters with BF3 in methanol.
The mixtures of methyl esters were analyzed by GC (gas chromatography) using a HP (Hewlett Packard) 5890 GC with an Agilent Technologies capillary column, HP-5 (crosslinked 5% PH) ME Siloxane 0.25 micrometer coating with a length of 30 meter and a column ID (internal diameter) of 0.32 mm. Helium was used as a carrier gas. Detection was by a FID detector and integration of peak areas was done with a HP 3396 integrator. The temperature program held an initial temperature of 40° C. for 1.0 minutes then increased at 15 degrees per minute to 280° C., and finally held at a temperature of 280° C. for 5 minutes. To quantify the amount of organic acids extracted by this procedure, a stock solution of 2-bromooctanoate and 2-bromohexadecanoate were added to a sample of undigested Red River crude petroleum oil and then extracted by the same procedure as the bio-digested oil samples. The average area for theses two organic acids was used to estimate the amount of organic acids in micromoles per area unit determined by the GC integrator. The number was calculated to be approximately 1.0 micromoles per 100 area units. The area units for each of the GC peaks are list in Table 2. This number was used to estimate the micromoles organic acids extracted from the oil. This estimate was used to calculate the number of mg of KOH that equaled the number of micromoles of organic acid estimated. This number is listed on the last row in Table 2 as the calculated AN (acid number) for each digestion experiment. These estimated numbers are only based on organic acids that are hydrophobic enough to stay in the oil phase and not move into the aqueous phase. Organic acids measured include the carboxylic acids made by the bacteria and that have been secreted out of the cell and have migrated back to the oil phase. They are also hydrocarbons that are small enough to be extracted into the ethanol aqueous extraction solvent. This number is likely to be less than the total acid number (TAN), a measure often used to evaluate crude petroleum for amenability to alkaline waterflooding.
The earlier eluting peaks are believed to represent methyl ester of lighter hydrocarbon carboxylic acids and the later eluting peaks are believed to represent methyl ester of the heavier organic acids. […]

[2] = system: Rhodococcus rhodochrous ATCC #53968; assay: End of digestion: oil and aqueous volumes, acid number by alcoholic alkaline extraction and back titration; format: cell-based; settings: one ml of oil, alcoholic alkaline extraction, back titration; acrylic acid value per gram of oil emulsion
Experimental: as §1, with “The samples were shaken vigorously for one minute. The aqueous extract material was then extracted with hexane to remove any trace of oil. The samples of extracted organic acids were then dried under vacuum and converted to methyl esters with BF3 in methanol.” left out
At the end of the experiment the oil and water were separated and the volume determined. […] This would have under reported the amount of methyl esters determined by GC analysis. The amount of aqueous phase was determined to be 22.5 ml for the acrylic acid sample and 46 ml, 48 ml and 47.5 ml for the others. […] The calculated acid number for the uninhibited digestion was 5 mg of KOH per gram. The other two inhibited digestions were analyzed to be 4.5 mg for the 2-bromooctanoic acid and 6.5 for the 2-bromohexadecanoic acid inhibited digestion. The undigested oil was determined to have an acid number of 6.5 mg of KOH by analysis of a one gram sample and a 10 gram sample. […]

[3] = system: Rhodococcus rhodochrous ATCC #53968; assay: Growth of bacteria on crude oil with inhibitors, optical density at 600 nm; format: cell-based
Experimental: as §1
Digestion with the bacteria increases the total amount of carboxylic acids in all the samples. The digestions with the chemical beta-oxidation inhibitors produce about the same or a little more total methyl ester peaks than the bacterial digestion without an inhibitor. […] The later eluting peaks increase at a faster rate with the inhibitors than without. For example, the 12 day sample with no inhibitor increase from 5.9 to 45.9 area units for peaks up to 13 minutes. The sample with the acrylic acid inhibitor has an increase of from 5.9 to 43.7 area units, which is less than without inhibitor. The later eluting peaks increase from 3.6 to 14.3 without the inhibitor, but with acrylic acid the later peak areas increase to 22.5 area units. […] After 6 days of digestion the optical density had reached 2.23 for the uninhibited digestion as compared to 0.49 for the acrylic acid inhibited sample and 1.84 for the 2-bromooctanoic acid and 2.4 for the 2-bromohexadeconoic acid. After 12 days of digestion the uninhibited sample had reached 4.0 and the acrylic acid had increased to 1.7 and 2.2 and 2.4 for the other two inhibitors. Therefore, by this experimental analysis one can determine which inhibitors increase the carboxylic acid content or the acid number of the oil fastest with the least amount of oil consumption. The oil consumption can be determined by quantitation of remaining oil or by growth of bacteria were oil is the only carbon source. It appears that all the inhibitors helped reduce the utilization of fatty acids and the consumption of oil while producing an increase in acid number.

[4] = 100, pH 10
Experimental: Production of rhamnolipid biosurfactant was tested in engineered strains using the oil spreading assay (Fang et al DOE report 2007). Cells were grown three days at 30° C. in YCA-10 medium (per liter: 25 g NaCl, 5 g yeast extract, 5 g casamino Acids, 5 g Na2CO3, 1 g sodium glutamate, 1 g NH4Cl, 1 g KH2PO4, 1 g KCl, 200 mg MgSO4.7H2O, 36 mg FeCl2.4H2O, 0.36 mg MnCl.4H2O, adjusted to pH10.0 with KOH) containing 5 μg/ml chloramphenicol. For oil spreading assays, 50 mls of distilled water was dispensed into a 15 cm petri dish and 50 μl of petroleum oil was added to the surface of the water. A 10 μl drop of medium or culture suspension was added to the surface of the oil, and the diameter of the clear zone (if any) was measured after 2 minutes.

3-ketothiolase I = molecular target: T1, 3-ketothiolase I (Rattus norvegicus, UniProt P13437); settings: cited from earlier work
T1 sequence (P13437 1-397): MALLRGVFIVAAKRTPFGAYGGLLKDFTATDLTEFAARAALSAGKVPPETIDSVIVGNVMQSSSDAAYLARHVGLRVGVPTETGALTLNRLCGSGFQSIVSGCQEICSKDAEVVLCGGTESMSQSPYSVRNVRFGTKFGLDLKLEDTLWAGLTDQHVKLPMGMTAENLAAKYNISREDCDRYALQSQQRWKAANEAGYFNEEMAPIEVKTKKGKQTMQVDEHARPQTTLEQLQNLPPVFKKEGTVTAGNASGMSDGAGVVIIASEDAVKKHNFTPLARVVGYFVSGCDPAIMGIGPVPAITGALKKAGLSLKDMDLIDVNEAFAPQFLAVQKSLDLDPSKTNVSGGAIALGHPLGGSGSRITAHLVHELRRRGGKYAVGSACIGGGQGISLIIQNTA

O=C(O)c1ccccc1O [Salicylic acid]
effect on 3-ketoacyl-CoA thiolase in P. fluorescens (3-ketoacyl-CoA thiolase): inhibit

CCCCCCCCCCCCCCC(Br)C(=O)O (stereo not shown) [Br C16, 2-bromohexadecanoic acid]
GC peak area, retention time 4.5 ([1]; 6 days): 0.226 area units
GC peak area, retention time 5.6 ([1]; 6 days): 1.099 area units
GC peak area, retention time 6.6 ([1]; 6 days): 3.049 area units
GC peak area, retention time 7.6 ([1]; 6 days): 2.553 area units
GC peak area, retention time 8.2 ([1]; 6 days): 0.705 area units
GC peak area, retention time 8.5 ([1]; 6 days): 1.395 area units
GC peak area, retention time 9.4 ([1]; 6 days): 1.131 area units
GC peak area, retention time 10.2 ([1]; 6 days): 1.11 area units
GC peak area, retention time 11 ([1]; 6 days): 4.105 area units
GC peak area, retention time 11.5 ([1]; 6 days): 2.76 area units
GC peak area, retention time 12.5 ([1]; 6 days): 4.8 area units
GC peak area, retention time 13.2 ([1]; 6 days): 1.26 area units
GC peak area, retention time 13.6 ([1]; 6 days): 1.997 area units
GC peak area, retention time 13.8 ([1]; 6 days): 3.211 area units
SubTotal peak area, later peaks eluting after 13 minutes ([1]; 6 days): 6.468 area units
SubTotal peak area, peaks eluting before 13 minutes ([1]; 6 days): 22.933 area units
Total GC area For 1 ml ([1]; 6 days): 1385
Total of all selected peaks ([1]; 6 days): 29.401 area units
Total GC (all peaks integrated by the GC integrator) ([1]; 6 days): 429.5 area units
conv. To umoles FA ([1]; 6 days): 13.85 µmol
Cal. AN (calculated acid number) ([1]; 6 days): 0.78 mg of KOH
GC peak area, retention time 4.2 ([1]; 12 days): 0.354 area units
GC peak area, retention time 4.5 ([1]; 12 days): 0.237 area units
GC peak area, retention time 5.6 ([1]; 12 days): 0.624 area units
GC peak area, retention time 6.6 ([1]; 12 days): 1.498 area units
GC peak area, retention time 7.6 ([1]; 12 days): 1.246 area units
GC peak area, retention time 8.2 ([1]; 12 days): 0.602 area units
GC peak area, retention time 8.5 ([1]; 12 days): 0.624 area units
GC peak area, retention time 9.4 ([1]; 12 days): 0.476 area units
GC peak area, retention time 10.2 ([1]; 12 days): 0.475 area units
GC peak area, retention time 11 ([1]; 12 days): 1.663 area units
GC peak area, retention time 11.5 ([1]; 12 days): 3.922 area units
GC peak area, retention time 12.3 ([1]; 12 days): 3.095 area units
GC peak area, retention time 13 ([1]; 12 days): 2.495 area units
GC peak area, retention time 13.2 ([1]; 12 days): 3.584 area units
GC peak area, retention time 13.4 ([1]; 12 days): 3.088 area units
GC peak area, retention time 13.6 ([1]; 12 days): 2.779 area units
GC peak area, retention time 13.8 ([1]; 12 days): 4.626 area units
GC peak area, retention time 14.2 ([1]; 12 days): 0.762 area units
SubTotal peak area, later peaks eluting after 13 minutes ([1]; 12 days): 17.334 area units
SubTotal peak area, peaks eluting before 13 minutes ([1]; 12 days): 14.816 area units
Total GC area For 1 ml ([1]; 12 days): 828
Total of all selected peaks ([1]; 12 days): 32.15 area units
Total GC (all peaks integrated by the GC integrator) ([1]; 12 days): 256.8 area units
conv. To umoles FA ([1]; 12 days): 8.28 µmol
Cal. AN (calculated acid number) ([1]; 12 days): 0.46 mg of KOH
final analysis acid number [2]: 6.5 mg KOH per gram
optical density ([3]; after 6 days of digestion, crude oil only carbon source): 2.4
optical density ([3]; after 12 days of digestion): 2.4

CC(C)CCCCCCCCC[C@@H]1CC(=O)N[C@@H](CCC(=O)O)C(=O)N[C@@H](CC(C)C)C(=O)N[C@H](CC(C)C)C(=O)N[C@@H](C(C)C)C(=O)N[C@@H](CC(=O)O)C(=O)N[C@H](CC(C)C)C(=O)N[C@@H](CC(C)C)C(=O)O1 [Surfactin (purified)] (EL[dL]VD[dL]L; linker N-C via X1)
Clear zone diameter [4]: 13 mm

CCCCCCC(Br)C(=O)O (racemic) [DL-2-bromooctanoate]
effect on 3-ketothiolase I (3-ketothiolase I): complete and irreversible inactivation
